{"source": "patent US8980914B2", "about": "“Therapeutic agent for chronic obstructive pulmonary disease and method for treatment for chronic obstructive pulmonary disease with the same” (Mariposa Health Limited, priority 2003, dated 2015)", "key": {"[1]": {"system": "airway hyper-responsiveness induced by peroxynitrite", "test": "Airway hyper-responsiveness model induced by exposure of peroxynitrite in guinea pigs (lung resistance after histamine)", "assay_type": "in vivo", "conditions": "30 mg/kg orally one hour before peroxynitrite, histamine 32 μg/kg i.v. on 5-day, control group 759, non-stimulation group 382", "procedure": "This test was performed so as to investigate the pharmacological effect of the 7-aminoquinolinone derivative of the present invention on an airway hyper-responsiveness model induced by exposure of peroxynitrite in guinea pigs. The test procedure will now be described.\nGuinea pigs were fasted for 18 hours or more. The animals were administrated the test substance (30 mg/kg) orally one hour before exposure of peroxynitrite and the neck was dissected under ether anesthesia, and then the trachea was exposed. 0.1 mL of 1 mmol/L peroxynitrite was administered intratracheally into pulmonary side by pushing with air and, after the administration, the incision was sutured and disinfected.\nThe measurement of airway hyper-responsiveness was performed on 5-day, taking the day of model preparation 0-day. Guinea pigs were fasted for 18 hours or more. The measurement of lung resistance; (RLung) was performed according to the method of R. E. Giles et al. (R. E. Giles, M. P. Finkel and J. Mazurowski: Use of an Analog On-Line Computer for the Evaluation of Pulmonary Resistance and Dynamic Compliance in the Anesthetized Dog. Arch. Int. Pharmacodyn. 194, 213-222 (1971)). That is, the animals were anesthetized with Nembutal (Trade name: 40 mg/kg, i.v., sodium pentobarbital) and subjected to cannulation into esophagus, trachea and jugular veins (for administration of histamine). The esophagus and trachea cannulas were connected to an artificial respirator (ventilation volume: 6 mL/kg, ventilation frequency: 60 times/min, SN-480-7) and the Rlung was measured after intravenous administration (dose of 0.1 mL/kg) of physiological saline solution and histamine (32 μg/kg) using a total plethysmograph system via flow sensor, connected to Validyne DF45F (for flow rate) and DP45P (for pressure). RLung before administration was determined by averaging values of any 3 out of 20 breaths, RLung after administration of physiological saline solution was determined by averaging values of any 3 out of 5 breaths, and RLung after administration of histamine was determined by averaging values of the following 3 breaths; 1) showing the maximum lung resistance, 2) taken just before and 3) taken just after the one with the maximum lung resistance, out less than 20 breaths. (The extreme values in RLung that occurred when animal moved during the measurement were excluded from the calculations.)\nThe percentage of increase in lung resistance was calculated by the following equation. Increase in lung resistance (%)=([RLung after administration of histamine]−[RLung before administration])/[RLung before administration]×100"}, "[2]": {"test": "Peroxynitrite scavenging activity (oxidation of dihydrorhodamine 123)", "assay_type": "biochemical", "conditions": "oxidation of dihydrorhodamine 123 by peroxynitrite, phosphate buffer pH 7.4; read-out: 50% Inhibitory concentration on oxidation (IC50)", "procedure": "This test was performed by estimating the antioxidative effect of the test substance using peroxynitrite quantitative method as a test system with dihydrorhodamine 123 so as to confirm the ability of the 7-aminoquinolinone derivatives of the present invention to scavenge peroxynitrite. This is a method described in NITRIC OXIDE: Biology and Chemistry Vol. 1, 145-157, 1997.\nThe test substance was weighted in an amount of approximately 10 mg, dissolved in a 10% Tween 80 solution and adjusted to 5×10^−3 mol/L. Then, the solution was diluted with 0.1 mol/L phosphate buffer (pH=7.4) to 5×10^−4 mol/L. The diluent was further diluted stepwise with a phosphate buffer containing 1% Tween 80 to obtain substance solution. The preparation was conducted before use. The final concentration of the test substance was adjusted to 3×10^−6, 1×10^−6, 3×10^−7, 1×10^−7, and 3×10^−8 mol/L, respectively.\nTo 20 μL of peroxynitrite solution (manufactured by DOJINDO LABORATORIES), 1980 μL of 0.1 mol/L sodium hydroxide was added and the mixture was diluted 100 times. The absorbance of the maximum absorption wavelength near 300 nm was measured using a UV-visible spectrophotometer and the concentration was calculated according to the following equation. Concentration(mmol/L)=(absorbance/1670)×100×1000\nBased on the concentration calculated in the above section, dilution with a 0.1 mol/L sodium hydroxide solution was conducted and adjusted to 10 mmol/L. 990 μL of a 0.1 mol/L sodium hydroxide solution was taken into a 1.5 mL-Eppen tube. To the Eppen tube, 10 μL of a solution adjusted to 10 mmol/L was added to prepare a 100 μmol/L solution.\nDihydrorhodamine 123 was dissolved into 1.155 mL of dimethylsulfoxide, and adjusted to the concentration of 25 mmol/L. This solution was dispensed into 20 μL aliquots and then the aliquots were stored in a biomedical freezer (about −20° C.) and used as a stock solution.\nTo 490 μL of 0.02% Tween 80 containing 0.1 mol/L phosphate buffer, 10 μL of 25 mmol/L of a thawed dihydrorhodamine 123 stock solution was added to make 500 μmol/L. The prepared solution was diluted with 0.1 mol/L phosphate buffer (pH=7.4) 1000 times to prepare 500 nmol/L of a dihydrorhodamine 123 solution.\n(1) To a 3.5 mL brown vial containing a stirring bar, 1470 μL of a 500 nmol/L dihydrorhodamine 123 solution and then 15 μL of the test substance solution was added. For the blank and control groups, 15 μL of 0.1 mol/L phosphate buffer containing 1% Tween 80, as a solvent for the test substance solution, was added. After the addition, the mixture was stirred with a stirrer for 30 minutes.\n15 μL of a 100 μmol/L peroxynitrite solution was added while stirring. For the blank group, 15 μL of a 0.1 mol/L sodium hydroxide solution was added. After stirring for 15 minutes, fluorescence intensity was measured.\nFluorescence intensity of the reaction solution was measured using a spectrophotofluorometer under the following measuring conditions: excitation wavelength, 500 nm; emission wavelength, 536 nm; measuring times, one; response, 1 sec; photomultiplier tube voltage, Low; band width at excitation side, 10 nm; bandwidth at emission side, 10 nm.\nThe oxidation rate of dihydrorhodamine 123 when adding the test substance was calculated, taking the oxidation rate of dihydrorhodamine 123 for control as 100, according to the following equation: Oxidation rate (%) of dihydrorhodamine 123=(measured value for each group−measured value for blank)/(measured for control−measured value for blank)×100 Calculation of Oxidation Inhibition Concentration (IC50)\n50% oxidation concentration, that is 50% oxidation inhibition concentration (IC50) was calculated by giving a straight line from two points surrounding 50% oxidation rate."}, "[3]": {"system": "airway hyper-responsiveness induced by ozone", "test": "Airway hyper-responsiveness model induced by inhalation of ozone in guinea pigs (lung resistance after methacholine)", "assay_type": "in vivo", "conditions": "test substance 30 mg/kg one hour before ozone inhalation, RLung after methacholine inhalation 5 hours after end of ozone exposure", "procedure": "This test was performed so as to evaluate the pharmacological effect of the 7-aminoquinolinone derivatives of the present invention in an airway hyper-responsiveness model induced by inhalation of ozone in guinea pigs. The test procedure will now be described.\nGuinea pigs were fasted for 18 hours or more. The animals were administered the test substance (30 mg/kg) and theophylline (100 mg/kg) one hour before ozone inhalation. For the non-stimulation group and the vehicle control group, vehicle (5 mL/kg) was administered similarly.\nThe animals were put into an acryl-made chamber (29×19×25 cm), subjected to induction of ozone generated by an ozonizer (EUV3-XU; EBARA JITSUGYO CO, LTD.) and exposed for 2 hours. The ozone concentration in the chamber was approximately 3 ppm. It was confirmed every 30 minutes that this concentration was maintained during exposure by an ozone monitor (EG-5000; EBARA JITSUGYO CO, LTD.) (measured value: 2.53 to 3.40 ppm). For the non-stimulation group, the animals were exposed to a mixed gas (oxygen: 95%, carbonic acid gas: 5%) similarly. The ozone concentration at that time was also confirmed similarly (acceptable concentration: 0.01 ppm or less, measured value: 0.00 to 0.01 ppm).\nThe measurement of airway hyper-responsiveness was performed 5 hours after the end of ozone exposure. The measurement of lung resistance (RLung) was performed according to the method of R. E. Giles et al. in the same manner as in Example 2. That is, the animals were anesthetized with Nembutal (Trade name: 50 mg/kg, i.p., sodium pentobarbital) and subjected to cannulation into esophagus and trachea. The esophagus and trachea cannulas were connected to a respirator (ventilation volume: 6 mL/kg, ventilation frequency: 60 times/min, SN-480-7) and the RLung after inhalation of methacholine (100 μg/mL, for 1.5 minutes) was measured by the respiratory function analyzer (PULMOS-II; M.I.P.S) through a flow sensor (connected to Validyle DF45F (for flow rate) and DP45P (for pressure)). The inhalation of methacholine was performed with an ultrasonic nebuliser (NE-U17; Omron Matsuzaka) connected to the respirator under artificial respiration.\nUsed RLung represents 10 breaths having a stable value in a range from 1 to 30 breaths after initiation of each measurement for both before inhalation and during methacholine inhalation. The average of the RLung was calculated. The extreme values in RLung that occurred when animal moved during the measurement were excluded from the calculations.\nThe percentage of increase of RLung was calculated by the following equation. Increase in lung resistance (%)=([RLung after inhalation of methacholine]−[RLung before administration])/[RLung before administration]×100"}}}
{"smiles": "COc1c(O)c(=O)n(C)c2cc(N)ccc12", "note": "[Compound 58]", "values": [{"measurement": "Increase in lung resistance (%)", "setting": "[1]", "result": 423, "unit": "%"}, {"measurement": "IC50", "setting": "[2]", "result": 810, "unit": "nM"}, {"measurement": "Increase in lung resistance (%)", "setting": "[3]", "result": 27, "unit": "%"}]}
{"smiles": "CCCCCCOc1c(O)c(=O)n(C)c2cc(NC(C)=O)ccc12", "note": "[Compound 401]", "values": [{"measurement": "Increase in lung resistance (%)", "setting": "[1]", "result": 420, "unit": "%"}, {"measurement": "IC50", "setting": "[2]", "result": 1010, "unit": "nM"}, {"measurement": "Increase in lung resistance (%)", "setting": "[3]", "result": 25, "unit": "%"}]}
{"smiles": "COc1cc(C=CC(=O)Nc2ccc3c(O)c(OCC=C(C)CCC=C(C)C)c(=O)n(C)c3c2)cc(OC)c1O", "note": "[Compound 553]", "values": [{"measurement": "Increase in lung resistance (%)", "setting": "[1]", "result": 417, "unit": "%"}, {"measurement": "IC50", "setting": "[2]", "result": 980, "unit": "nM"}, {"measurement": "Increase in lung resistance (%)", "setting": "[3]", "result": 28, "unit": "%"}]}
{"smiles": "CCCCCCOc1c(O)c2ccc(NC=O)cc2n(CCCC)c1=O", "note": "[Compound 459]", "values": [{"measurement": "Increase in lung resistance (%)", "setting": "[1]", "result": 427, "unit": "%"}, {"measurement": "IC50", "setting": "[2]", "result": 940, "unit": "nM"}, {"measurement": "Increase in lung resistance (%)", "setting": "[3]", "result": 26, "unit": "%"}]}
